Experimental findings from BindingDB's records for doi:10.1016/s0960-894x(00)00535-7 (Kyoto University, 2000) are described below.

In general, EC50 refers to the concentration at which the effect is half-maximal.

Where a SMILES comes first, the peptide text is derived from it. Bridges are numbered along the chain shown (N, C = ends). [ ]: non-standard residue; d: D form. 2Nal = N[C@@H](Cc1ccc2ccccc2c1)C(=O)O; Cit = NC(=O)NCCC[C@H](N)C(=O)O

A short description of this experiment: Inhibition of HIV-induced cytopathogenicity in MT-4 cell.
Molecule `C[C@@H]1NC(=O)[C@@H]2CCCN2C(=O)[C@@H](CCCCN)NC(=O)[C@H](CCCCN)NC(=O)[C@H](CCCN=C(N)N)NC(=O)[C@H](Cc2ccc(O)cc2)NC(=O)[C@@H](NC(=O)[C@H](Cc2ccc3ccccc3c2)NC(=O)[C@H](CCCN=C(N)N)NC(=O)[C@@H](N)CCCN=C(N)N)CSSC[C@@H](C(=O)N[C@@H](CCCN=C(N)N)C(=O)O)NC(=O)[C@H](CCCNC(N)=O)NC(=O)[C@H](CCCN=C(N)N)NC1=O` registered a concentration giving a half-maximal response (EC50) of 17 nM.

Consider `C[C@H](NC(=O)[C@H](CCCN=C(N)N)NC(=O)[C@@H](N)CCCN=C(N)N)C(=O)N[C@H]1CSSC[C@@H](C(=O)N[C@@H](CCCN=C(N)N)C(=O)O)NC(=O)[C@H](CCCNC(N)=O)NC(=O)[C@H](CCCN=C(N)N)NC(=O)[C@H](Cc2ccc(O)cc2)NC(=O)[C@@H]2CCCN2C(=O)[C@@H](CCCCN)NC(=O)[C@H](CCCCN)NC(=O)[C@H](CCCN=C(N)N)NC(=O)[C@H](Cc2ccc(O)cc2)NC1=O`, for which the EC50 is 2500 nM.

As for `C[C@@H]1NC(=O)[C@H](Cc2ccc(O)cc2)NC(=O)[C@@H]2CCCN2C(=O)[C@@H](CCCCN)NC(=O)[C@H](CCCCN)NC(=O)[C@H](CCCN=C(N)N)NC(=O)[C@H](Cc2ccc(O)cc2)NC(=O)[C@@H](NC(=O)[C@H](Cc2ccc3ccccc3c2)NC(=O)[C@H](CCCN=C(N)N)NC(=O)[C@@H](N)CCCN=C(N)N)CSSC[C@@H](C(=O)N[C@@H](CCCN=C(N)N)C(=O)O)NC(=O)[C@H](CCCNC(N)=O)NC1=O` [TC-14007], the EC50 is 18 nM.

For the molecule `NCCCC[C@@H]1NC(=O)[C@H](CCCNC(N)=O)NC(=O)[C@H](Cc2ccc(O)cc2)NC(=O)[C@@H](NC(=O)[C@H](Cc2ccc3ccccc3c2)NC(=O)[C@H](CCCN=C(N)N)NC(=O)[C@@H](N)CCCN=C(N)N)CSSC[C@@H](C(=O)N[C@@H](CCCN=C(N)N)C(=O)O)NC(=O)[C@H](CCCNC(N)=O)NC(=O)[C@H](CCCN=C(N)N)NC(=O)[C@H](Cc2ccc(O)cc2)NC(=O)[C@@H]2CCCN2C(=O)[C@@H](CCCCN)NC1=O`, a half-maximal effect (EC50) was put at 2.8 nM.

`C[C@@H]1NC(=O)[C@H](CCCN=C(N)N)NC(=O)[C@H](Cc2ccc(O)cc2)NC(=O)[C@@H](NC(=O)[C@H](Cc2ccc3ccccc3c2)NC(=O)[C@H](CCCN=C(N)N)NC(=O)[C@@H](N)CCCN=C(N)N)CSSC[C@@H](C(=O)N[C@@H](CCCN=C(N)N)C(=O)O)NC(=O)[C@H](CCCNC(N)=O)NC(=O)[C@H](CCCN=C(N)N)NC(=O)[C@H](Cc2ccc(O)cc2)NC(=O)[C@@H]2CCCN2C(=O)[C@@H](CCCCN)NC1=O` registered an EC50 of 47 nM.

In turn, `C[C@@H]1NC(=O)[C@@H](CCCCN)NC(=O)[C@H](CCCCN)NC(=O)[C@H](CCCN=C(N)N)NC(=O)[C@H](Cc2ccc(O)cc2)NC(=O)[C@@H](NC(=O)[C@H](Cc2ccc3ccccc3c2)NC(=O)[C@H](CCCN=C(N)N)NC(=O)[C@@H](N)CCCN=C(N)N)CSSC[C@@H](C(=O)N[C@@H](CCCN=C(N)N)C(=O)O)NC(=O)[C@H](CCCNC(N)=O)NC(=O)[C@H](CCCN=C(N)N)NC(=O)[C@H](Cc2ccc(O)cc2)NC1=O` (H-RR[2Nal]CYRK[dK]AYR[Cit]CR-OH; disulfide 4-13) displayed an EC50 of 17 nM.

For `NCCCC[C@@H]1NC(=O)[C@H](CCCN=C(N)N)NC(=O)[C@H](Cc2ccc(O)cc2)NC(=O)[C@@H](NC(=O)[C@H](Cc2ccc3ccccc3c2)NC(=O)[C@H](CCCN=C(N)N)NC(=O)[C@@H](N)CCCN=C(N)N)CSSC[C@@H](C(=O)N[C@@H](CCCN=C(N)N)C(=O)O)NC(=O)[C@H](CCCNC(N)=O)NC(=O)[C@H](CCCN=C(N)N)NC(=O)[C@H](Cc2ccc(O)cc2)NC(=O)[C@@H]2CCCN2C(=O)[C@@H](CCCNC(N)=O)NC1=O` [TC-14004], the EC50 worked out at 4 nM.

`C[C@H](NC(=O)[C@@H](N)CCCN=C(N)N)C(=O)N[C@@H](Cc1ccc2ccccc2c1)C(=O)N[C@H]1CSSC[C@@H](C(=O)N[C@@H](CCCN=C(N)N)C(=O)O)NC(=O)[C@H](CCCNC(N)=O)NC(=O)[C@H](CCCN=C(N)N)NC(=O)[C@H](Cc2ccc(O)cc2)NC(=O)[C@@H]2CCCN2C(=O)[C@@H](CCCCN)NC(=O)[C@H](CCCCN)NC(=O)[C@H](CCCN=C(N)N)NC(=O)[C@H](Cc2ccc(O)cc2)NC1=O` [TC-14001] displayed an EC50 of 1300 nM. Compared with the last molecule, the EC50 is about 320-fold higher.

As for `NCCCC[C@@H]1NC(=O)[C@H](CCCN=C(N)N)NC(=O)[C@H](Cc2ccc(O)cc2)NC(=O)[C@@H](NC(=O)[C@H](Cc2ccc3ccccc3c2)NC(=O)[C@H](CCCN=C(N)N)NC(=O)[C@@H](N)CCCN=C(N)N)CSSC[C@@H](C(=O)N[C@@H](CCCNC(N)=O)C(=O)O)NC(=O)[C@H](CCCNC(N)=O)NC(=O)[C@H](CCCN=C(N)N)NC(=O)[C@H](Cc2ccc(O)cc2)NC(=O)[C@@H]2CCCN2C(=O)[C@@H](CCCCN)NC1=O` [TC-14006], the concentration giving a half-maximal response (EC50) came to 880 nM.

Take `NCCCC[C@@H]1NC(=O)[C@H](CCCN=C(N)N)NC(=O)[C@H](Cc2ccc(O)cc2)NC(=O)[C@@H](NC(=O)[C@H](Cc2ccc3ccccc3c2)NC(=O)[C@H](CCCN=C(N)N)NC(=O)[C@@H](N)CCCN=C(N)N)CSSC[C@@H](C(=O)N[C@@H](CCCN=C(N)N)C(=O)O)NC(=O)[C@H](CCCNC(N)=O)NC(=O)[C@H](CCCN=C(N)N)NC(=O)[C@H](Cc2ccc(O)cc2)NC(=O)[C@@H]2CCCN2C(=O)[C@@H](CCCCN)NC1=O` (H-RR[2Nal]CYRK[dK]PYR[Cit]CR-OH; disulfide 4-13): the concentration giving a half-maximal response (EC50) stood at 3.3 nM. Compared with the last molecule, the EC50 is about 270-fold lower.

Turning to `NCCCC[C@H]1NC(=O)[C@H](CCCNC(N)=O)NC(=O)[C@H](CCCN=C(N)N)NC(=O)[C@H](Cc2ccc(O)cc2)NC(=O)[C@@H](NC(=O)[C@H](Cc2ccc3ccccc3c2)NC(=O)[C@H](CCCN=C(N)N)NC(=O)[C@@H](N)CCCN=C(N)N)CSSC[C@@H](C(=O)N[C@@H](CCCN=C(N)N)C(=O)O)NC(=O)[C@H](CCCNC(N)=O)NC(=O)[C@H](CCCN=C(N)N)NC(=O)[C@H](Cc2ccc(O)cc2)NC(=O)[C@@H]2CCCN2C1=O`, the concentration for a half-maximal effect (EC50) is 16 nM. This EC50 is about 4.8-fold higher than that of the molecule before.

For the molecule `NCCCC[C@@H]1NC(=O)[C@H](CCCN=C(N)N)NC(=O)[C@H](Cc2ccc(O)cc2)NC(=O)[C@@H](NC(=O)[C@H](Cc2ccc3ccccc3c2)NC(=O)[C@H](CCCNC(N)=O)NC(=O)[C@@H](N)CCCN=C(N)N)CSSC[C@@H](C(=O)N[C@@H](CCCN=C(N)N)C(=O)O)NC(=O)[C@H](CCCNC(N)=O)NC(=O)[C@H](CCCN=C(N)N)NC(=O)[C@H](Cc2ccc(O)cc2)NC(=O)[C@@H]2CCCN2C(=O)[C@@H](CCCCN)NC1=O`, the midpoint of the response, the EC50, lay at 450 nM.

In turn, `C[C@@H]1NC(=O)[C@H](CCCN=C(N)N)NC(=O)[C@H](Cc2ccc(O)cc2)NC(=O)[C@@H]2CCCN2C(=O)[C@@H](CCCCN)NC(=O)[C@H](CCCCN)NC(=O)[C@H](CCCN=C(N)N)NC(=O)[C@H](Cc2ccc(O)cc2)NC(=O)[C@@H](NC(=O)[C@H](Cc2ccc3ccccc3c2)NC(=O)[C@H](CCCN=C(N)N)NC(=O)[C@@H](N)CCCN=C(N)N)CSSC[C@@H](C(=O)N[C@@H](CCCN=C(N)N)C(=O)O)NC1=O` showed an EC50 of 16 nM.

Regarding `C[C@H]1NC(=O)[C@H](CCCCN)NC(=O)[C@H](CCCN=C(N)N)NC(=O)[C@H](Cc2ccc(O)cc2)NC(=O)[C@@H](NC(=O)[C@H](Cc2ccc3ccccc3c2)NC(=O)[C@H](CCCN=C(N)N)NC(=O)[C@@H](N)CCCN=C(N)N)CSSC[C@@H](C(=O)N[C@@H](CCCN=C(N)N)C(=O)O)NC(=O)[C@H](CCCNC(N)=O)NC(=O)[C@H](CCCN=C(N)N)NC(=O)[C@H](Cc2ccc(O)cc2)NC(=O)[C@@H]2CCCN2C1=O`, the EC50 came to 16 nM.

Turning to `NCCCC[C@@H]1NC(=O)[C@H](CCCN=C(N)N)NC(=O)[C@H](Cc2ccc(O)cc2)NC(=O)[C@@H](NC(=O)[C@H](Cc2c[nH]c3ccccc23)NC(=O)[C@H](CCCN=C(N)N)NC(=O)[C@@H](N)CCCN=C(N)N)CSSC[C@@H](C(=O)N[C@@H](CCCN=C(N)N)C(=O)O)NC(=O)[C@H](CCCNC(N)=O)NC(=O)[C@H](CCCN=C(N)N)NC(=O)[C@H](Cc2ccc(O)cc2)NC(=O)[C@@H]2CCCN2C(=O)[C@@H](CCCCN)NC1=O`, the midpoint of the response, the EC50, lay at 8.3 nM.

The molecule `NCCCC[C@@H]1NC(=O)[C@H](CCCN=C(N)N)NC(=O)[C@H](Cc2ccc(O)cc2)NC(=O)[C@@H](NC(=O)[C@H](Cc2ccc3ccccc3c2)NC(=O)[C@H](CCCN=C(N)N)NC(=O)[C@@H](N)CCCN=C(N)N)CSSC[C@@H](C(=O)N[C@@H](CCCN=C(N)N)C(=O)O)NC(=O)[C@H](CCCNC(N)=O)NC(=O)[C@H](CCCNC(N)=O)NC(=O)[C@H](Cc2ccc(O)cc2)NC(=O)[C@@H]2CCCN2C(=O)[C@@H](CCCCN)NC1=O` [TC-14003] showed an EC50 of 15 nM.

Molecule `CC(N)C(=O)N[C@@H](CCCN=C(N)N)C(=O)N[C@@H](Cc1ccc2ccccc2c1)C(=O)N[C@H]1CSSC[C@@H](C(=O)N[C@@H](CCCN=C(N)N)C(=O)O)NC(=O)[C@H](CCCNC(N)=O)NC(=O)[C@H](CCCN=C(N)N)NC(=O)[C@H](Cc2ccc(O)cc2)NC(=O)[C@@H]2CCCN2C(=O)[C@@H](CCCCN)NC(=O)[C@H](CCCCN)NC(=O)[C@H](CCCN=C(N)N)NC(=O)[C@H](Cc2ccc(O)cc2)NC1=O` (stereo not given in full) returned a half-maximal effective concentration (EC50) of 56 nM.

Take `C[C@@H]1NC(=O)[C@@H](NC(=O)[C@H](Cc2ccc3ccccc3c2)NC(=O)[C@H](CCCN=C(N)N)NC(=O)[C@@H](N)CCCN=C(N)N)CSSC[C@@H](C(=O)N[C@@H](CCCN=C(N)N)C(=O)O)NC(=O)[C@H](CCCNC(N)=O)NC(=O)[C@H](CCCN=C(N)N)NC(=O)[C@H](Cc2ccc(O)cc2)NC(=O)[C@@H]2CCCN2C(=O)[C@@H](CCCCN)NC(=O)[C@H](CCCCN)NC(=O)[C@H](CCCN=C(N)N)NC1=O` [TC-14005]: the concentration giving a half-maximal response (EC50) came to 360 nM.

In the case of `C[C@H](NC(=O)[C@@H]1CSSC[C@H](NC(=O)[C@H](Cc2ccc3ccccc3c2)NC(=O)[C@H](CCCN=C(N)N)NC(=O)[C@@H](N)CCCN=C(N)N)C(=O)N[C@@H](Cc2ccc(O)cc2)C(=O)N[C@@H](CCCN=C(N)N)C(=O)N[C@@H](CCCCN)C(=O)N[C@H](CCCCN)C(=O)N2CCC[C@H]2C(=O)N[C@@H](Cc2ccc(O)cc2)C(=O)N[C@@H](CCCN=C(N)N)C(=O)N[C@@H](CCCNC(N)=O)C(=O)N1)C(=O)O`, the midpoint of the response, the EC50, lay at 400 nM.

Take `NCCCC[C@@H]1NC(=O)[C@H](CCCN=C(N)N)NC(=O)[C@H](Cc2ccc(O)cc2)NC(=O)[C@@H](NC(=O)[C@H](Cc2ccc3ccccc3c2)NC(=O)[C@H](CCCN=C(N)N)NC(=O)[C@@H](N)CCCNC(N)=O)CSSC[C@@H](C(=O)N[C@@H](CCCN=C(N)N)C(=O)O)NC(=O)[C@H](CCCNC(N)=O)NC(=O)[C@H](CCCN=C(N)N)NC(=O)[C@H](Cc2ccc(O)cc2)NC(=O)[C@@H]2CCCN2C(=O)[C@@H](CCCCN)NC1=O`: it took 15 nM to reach a half-maximal effect (EC50).
